For the assay, the system named is DN32.D3 cells. Kind of assay: αGalCer presentation by B cells to iNKT cells (IL-2 production). The class given is cell-based, mouse. Conditions: MD4 B cells pulsed with particles or soluble αGalCer, then cocultured with DN32.D3 cells; IL-2 by ELISA. The method, then:
Splenic B cells were enriched by negative selection to >99% purity using B cell purification kit (Miltenyi Biotec). For analysis of αGalCer presentation, B cells were incubated overnight with particles containing αGalCer and/or HEL, extensively washed and cultured at 5×10^4 cells per well with the same number of DN32.D3 cells. NKT activation was assayed by measuring IL-2 production in the culture supernatant. For blocking experiments MD4 B cells were incubated with an antiCDld blocking antibody (25 μg/ml; clone 1B1) for 2 h before incubation with iNKT cells.
Concentration of IL-2 in the supernatant of the cultures was determined by ELISA using the JES6-1A12 capture antibody (BD Pharmingen). Biotinylated JSE6-5H4 (BD Pharmingen) was used for detection. Specific antibody in mice sera were measured using plates coated with antigen (HEL, OVA or CGG) and serial dilutions of sera. Bound antibodies were detected with biotin-labelled goat anti-mouse IgM, IgG, IgG1, IgG2b, IgG2c or IgG3 (BD Pharmingen).
We aspired to investigate the impact of targeting iNKT cell help to antigen specific B cells during the development of an immune response. […] Alexa-488-labeled-αGalCer was used to quantify the amount of αGalCer loaded on the beads, and we found this to be 150 ng per μl of beads (10^8 beads/μl). […]
(In general: An ELISA detects its analyte on a solid surface through an enzyme-linked reagent.)

Molecules are shown by their SMILES.

Turning to `CCCCCCCCCCCCCCCCCCCCCCCCCC(=O)N[C@@H](CO[C@H]1O[C@H](CO)[C@H](O)[C@H](O)[C@H]1O)[C@H](O)[C@H](O)CCCCCCCCCCCCCC` [soluble αGalCer, α-galactosylceramide], the “iNKT cell activation (IL-2 production)” value was “efficiently presented by B cells and induced IL-2 production”.

The values above are taken from patent US20110280930A1, “PRODUCTS AND METHODS FOR STIMULATING AN IMMUNE RESPONSE” (priority 2008, published 2011).
